# Experimental data taken from BindingDB's records for doi:10.1016/0024-3205(96)00449-3 (Eli Lilly, 1996).
# pKi: −log10 of the molar value.
# How the values were obtained:
# [1] = molecular target: T1, 5-hydroxytryptamine receptor 2C (Homo sapiens, UniProt P28335)
# T1 sequence (P28335 whole entry): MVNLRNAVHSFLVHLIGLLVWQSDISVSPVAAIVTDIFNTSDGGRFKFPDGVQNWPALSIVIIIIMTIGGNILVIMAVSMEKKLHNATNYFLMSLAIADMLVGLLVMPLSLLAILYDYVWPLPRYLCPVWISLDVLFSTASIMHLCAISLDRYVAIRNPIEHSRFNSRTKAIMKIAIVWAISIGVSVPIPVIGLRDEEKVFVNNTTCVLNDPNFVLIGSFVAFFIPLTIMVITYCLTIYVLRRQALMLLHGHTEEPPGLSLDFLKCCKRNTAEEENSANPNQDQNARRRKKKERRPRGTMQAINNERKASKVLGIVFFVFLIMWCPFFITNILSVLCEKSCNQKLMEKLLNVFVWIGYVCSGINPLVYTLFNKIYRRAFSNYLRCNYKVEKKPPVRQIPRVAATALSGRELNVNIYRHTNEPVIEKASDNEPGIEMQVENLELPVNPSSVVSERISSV
# [2] = molecular target: 5-hydroxytryptamine receptor 2B (Homo sapiens, UniProt P41595)
# Sequence of 5-hydroxytryptamine receptor 2B (P41595 whole entry): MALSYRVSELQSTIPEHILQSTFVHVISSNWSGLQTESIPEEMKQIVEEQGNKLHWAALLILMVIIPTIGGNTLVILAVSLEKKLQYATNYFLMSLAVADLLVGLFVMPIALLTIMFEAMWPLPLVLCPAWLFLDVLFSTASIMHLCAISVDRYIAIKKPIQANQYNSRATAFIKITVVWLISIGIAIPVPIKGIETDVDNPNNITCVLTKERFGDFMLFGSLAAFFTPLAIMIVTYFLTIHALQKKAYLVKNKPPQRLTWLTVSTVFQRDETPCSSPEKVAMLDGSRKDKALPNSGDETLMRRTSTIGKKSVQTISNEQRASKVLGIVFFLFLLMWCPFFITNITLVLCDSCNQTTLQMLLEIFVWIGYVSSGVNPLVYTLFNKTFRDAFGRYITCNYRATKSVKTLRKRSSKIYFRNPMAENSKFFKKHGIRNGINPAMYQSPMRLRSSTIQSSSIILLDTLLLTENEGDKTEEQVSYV
# [3] = molecular target: 5-hydroxytryptamine receptor 2A (Homo sapiens, UniProt P28223)
# Sequence of 5-hydroxytryptamine receptor 2A (P28223 whole entry): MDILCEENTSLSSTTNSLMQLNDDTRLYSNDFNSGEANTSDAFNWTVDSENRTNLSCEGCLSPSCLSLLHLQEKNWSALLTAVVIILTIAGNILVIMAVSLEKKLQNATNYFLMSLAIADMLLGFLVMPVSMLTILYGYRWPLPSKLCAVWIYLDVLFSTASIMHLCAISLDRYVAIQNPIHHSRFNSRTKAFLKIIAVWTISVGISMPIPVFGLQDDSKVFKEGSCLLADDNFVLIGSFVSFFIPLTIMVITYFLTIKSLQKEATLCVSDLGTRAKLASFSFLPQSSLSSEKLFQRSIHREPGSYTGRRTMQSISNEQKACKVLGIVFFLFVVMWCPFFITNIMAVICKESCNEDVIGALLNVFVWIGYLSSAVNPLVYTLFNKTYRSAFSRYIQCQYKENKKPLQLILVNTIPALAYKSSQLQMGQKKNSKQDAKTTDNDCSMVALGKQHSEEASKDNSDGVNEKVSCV
Structure (SMILES),pKi [1],pKi [2],pKi [3]
CCCc1cc(C(C)(C)C)ccc1Oc1cccc(C=NN=C(N)N)c1 [LY 320951],5.93,5.53,6.08
CCc1c(COc2ccc(C=O)cc2)ccc(C(C)=O)c1O [LY 335102],5.01,5.10,
NC(N)=NN=Cc1cccc(OCc2ccc(C(=O)c3ccccc3)cc2)c1 [LY 334362],7.04,6.32,6.75
NC(N)=NN=C(c1ccccc1)C1CCC(Cl)S1 (stereo not drawn) [LY 063518],5.78,6.33,6.86
Cc1ccc(C)c(COc2ccc(C=NN=C(N)N)cc2)c1 [LY 334359],6.40,6.41,6.24
CCCc1c(COc2ccc(C=NN=C(N)N)cc2)ccc(C(=O)CC)c1O [LY 320954],6.59,5.78,7.02
CCCc1c(COc2ccc(C=NN=C(N)N)cc2)ccc(C(C)=O)c1O [LY 314228],6.77,5.92,7.19
CCCc1c(COc2ccc(C=NN=C(N)N)c(OC)c2)ccc(C(=O)CC)c1O [LY 320950],6.73,6.33,6.61
